Values joined by “and” are separate entries in the source; they are usually repeats but may differ in a detail not shown here. Equal values may be shown once.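 Briefly, cells in 96-well plates were exposed to five compound concentrations for 48 h, and endpoints were estimated by linear interpolation. GI50 is the concentration that inhibits growth by half. The concentration for full growth arrest is given as TGI.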
Assays:
Assay in all cases: NCI tumour cell line growth inhibition, 48 h; in the data active means GI50 below about 0.43 µM; inactive means the rest
CCRF-CEM leukemia = tested on: CCRF-CEM leukemia
OVCAR-5 ovarian = tested on: OVCAR-5 ovarian
HCT-15 colon = tested on: HCT-15 colon
SK-OV-3 ovarian = tested on: SK-OV-3 ovarian
HCT-116 colon = tested on: HCT-116 colon
MCF7 breast = tested on: MCF7 breast
UACC-62 melanoma = tested on: UACC-62 melanoma
MDA-MB-435 = tested on: MDA-MB-435
A498 renal = tested on: A498 renal
HT29 colon = tested on: HT29 colon
UO-31 renal = tested on: UO-31 renal
CAKI-1 renal = tested on: CAKI-1 renal
PC-3 prostate = tested on: PC-3 prostate
SNB-75 CNS = tested on: SNB-75 CNS
OVCAR-3 ovarian = tested on: OVCAR-3 ovarian
RXF 393 renal = tested on: RXF 393 renal
SK-MEL-28 melanoma = tested on: SK-MEL-28 melanoma
OVCAR-8 ovarian = tested on: OVCAR-8 ovarian
NCI-H23 lung = tested on: NCI-H23 lung
SNB-19 CNS = tested on: SNB-19 CNS
NCI/ADR-RES ovarian = tested on: NCI/ADR-RES ovarian
IGROV1 ovarian = tested on: IGROV1 ovarian
OVCAR-4 ovarian = tested on: OVCAR-4 ovarian
DU-145 prostate = tested on: DU-145 prostate
SF-295 CNS = tested on: SF-295 CNS
NCI-H522 lung = tested on: NCI-H522 lung
T-47D breast = tested on: T-47D breast
KM12 colon = tested on: KM12 colon
SF-539 CNS = tested on: SF-539 CNS
SR leukemia = tested on: SR leukemia
LOX IMVI melanoma = tested on: LOX IMVI melanoma
786-0 renal = tested on: 786-0 renal
MDA-MB-231 breast = tested on: MDA-MB-231 breast
TK-10 renal = tested on: TK-10 renal
U251 CNS = tested on: U251 CNS
NCI-H460 lung = tested on: NCI-H460 lung
COLO 205 colon = tested on: COLO 205 colon
RPMI-8226 leukemia = tested on: RPMI-8226 leukemia
A549 NSCLC = tested on: A549 NSCLC
HL-60(TB) leukemia = tested on: HL-60(TB) leukemia
K-562 leukemia = tested on: K-562 leukemia
ACHN renal = tested on: ACHN renal
SN12C renal = tested on: SN12C renal
HOP-62 NSCLC = tested on: HOP-62 NSCLC
HS 578T breast = tested on: HS 578T breast
SF-268 CNS = tested on: SF-268 CNS
M14 melanoma = tested on: M14 melanoma
UACC-257 melanoma = tested on: UACC-257 melanoma
MOLT-4 leukemia = tested on: MOLT-4 leukemia
SK-MEL-5 melanoma = tested on: SK-MEL-5 melanoma
SK-MEL-2 melanoma = tested on: SK-MEL-2 melanoma
BT-549 breast = tested on: BT-549 breast
NCI-H226 lung = tested on: NCI-H226 lung
HOP-92 NSCLC = tested on: HOP-92 NSCLC
MALME-3M melanoma = tested on: MALME-3M melanoma
SW-620 colon = tested on: SW-620 colon
EKVX NSCLC = tested on: EKVX NSCLC
HCC-2998 colon = tested on: HCC-2998 colon

CN1C(=O)C(c2c[nH]c3ccccc23)=C(c2c(-c3c[nH]c4ccccc34)[nH]c3ccccc23)C1=O
5.54 µM: TGI (UACC-62 melanoma)
14.1 µM: TGI (786-0 renal)
> 100 µM: TGI (UO-31 renal) | TGI (IGROV1 ovarian) | TGI (OVCAR-4 ovarian) | TGI (NCI-H522 lung) | TGI (K-562 leukemia)
13.9 µM: TGI (A549 NSCLC) | TGI (ACHN renal)
11.3 µM: TGI (OVCAR-5 ovarian)
19.5 µM: TGI (SF-268 CNS)
18.8 µM: TGI (SNB-19 CNS)
18 µM: TGI (SNB-75 CNS)
8.12 µM: TGI (A498 renal)
13.2 µM: TGI (UACC-257 melanoma)
inactive: GI50 (CCRF-CEM leukemia) 3.19 µM | GI50 (OVCAR-5 ovarian) 2.85 µM | GI50 (HCT-15 colon) 3.24 µM | GI50 (SK-OV-3 ovarian) 3.14 µM | GI50 (HCT-116 colon) 3.68 µM | GI50 (MCF7 breast) 2.27 µM | GI50 (UACC-62 melanoma) 2.91 µM | GI50 (MDA-MB-435) 1.71 µM | GI50 (A498 renal) 1.89 µM | GI50 (HT29 colon) 2.73 µM | GI50 (UO-31 renal) 15.2 µM | GI50 (CAKI-1 renal) 1.48 µM | GI50 (PC-3 prostate) 3.11 µM | GI50 (SNB-75 CNS) 1.74 µM | GI50 (OVCAR-3 ovarian) 0.92 µM | GI50 (RXF 393 renal) 1.64 µM | GI50 (SK-MEL-28 melanoma) 10.4 µM | GI50 (OVCAR-8 ovarian) 3.2 µM | GI50 (NCI-H23 lung) 1.7 µM | GI50 (SNB-19 CNS) 3.95 µM | GI50 (NCI/ADR-RES ovarian) 14.7 µM | GI50 (IGROV1 ovarian) 9.53 µM | GI50 (OVCAR-4 ovarian) 15.5 µM | GI50 (DU-145 prostate) 3 µM | GI50 (SF-295 CNS) 1.93 µM | GI50 (NCI-H522 lung) 12.3 µM | GI50 (T-47D breast) 4.72 µM | GI50 (KM12 colon) 2.13 µM | GI50 (SF-539 CNS) 1.81 µM | GI50 (SR leukemia) 5.19 µM | GI50 (LOX IMVI melanoma) 4.67 µM | GI50 (786-0 renal) 3.44 µM | GI50 (MDA-MB-231 breast) 4.09 µM | GI50 (TK-10 renal) 1.66 µM | GI50 (U251 CNS) 3 µM | GI50 (NCI-H460 lung) 3.31 µM | GI50 (COLO 205 colon) 2.8 µM | GI50 (RPMI-8226 leukemia) 3.54 µM | GI50 (A549 NSCLC) 3.83 µM | GI50 (HL-60(TB) leukemia) 2.41 µM | GI50 (K-562 leukemia) 3.07 µM | GI50 (ACHN renal) 3.4 µM | GI50 (SN12C renal) 2.64 µM | GI50 (HOP-62 NSCLC) 2.1 µM | GI50 (HS 578T breast) 3 µM | GI50 (SF-268 CNS) 4.07 µM | GI50 (M14 melanoma) 1.76 µM | GI50 (UACC-257 melanoma) 3.59 µM
15.8 µM: TGI (NCI-H460 lung)
4.79 µM: TGI (M14 melanoma)
7.61 µM: TGI (KM12 colon)
11 µM: TGI (OVCAR-8 ovarian)
8.21 µM: TGI (HL-60(TB) leukemia)
17.3 µM: TGI (PC-3 prostate)
6.26 µM: TGI (MCF7 breast)
12.2 µM: TGI (DU-145 prostate)
42.8 µM: TGI (NCI/ADR-RES ovarian)
11.2 µM: TGI (HCT-116 colon)
66.8 µM: TGI (T-47D breast)
31.4 µM: TGI (SK-MEL-28 melanoma)
13 µM: TGI (SK-OV-3 ovarian)
12.4 µM: TGI (CCRF-CEM leukemia)
4.27 µM: TGI (SF-295 CNS)
13.6 µM: TGI (HS 578T breast)
3.67 µM: TGI (SF-539 CNS)
9.68 µM: TGI (SR leukemia)
11.9 µM: TGI (HOP-62 NSCLC)
4.11 µM: TGI (MDA-MB-435)
12.3 µM: TGI (HCT-15 colon)
4.63 µM: TGI (CAKI-1 renal)
6.07 µM: TGI (RXF 393 renal)
9.61 µM: TGI (U251 CNS)
4.72 µM: TGI (NCI-H23 lung)
2.99 µM: TGI (OVCAR-3 ovarian)
17.5 µM: TGI (RPMI-8226 leukemia)
26.9 µM: TGI (MDA-MB-231 breast)
7.89 µM: TGI (COLO 205 colon)
17 µM: TGI (LOX IMVI melanoma)
4.85 µM: TGI (TK-10 renal)
8.36 µM: TGI (HT29 colon)

CC(C)C1=CC23CCC4C(C)(C(=O)O)CCCC4(C)C2CC1C(C(=O)O)C3C(=O)O (stereo not given)
> 100 µM: TGI (CCRF-CEM leukemia) | TGI (OVCAR-5 ovarian) | TGI (HCT-15 colon) | TGI (HCT-116 colon) | TGI (UACC-62 melanoma) | TGI (MDA-MB-435) | TGI (A498 renal) | TGI (HT29 colon) | TGI (MOLT-4 leukemia) | TGI (UO-31 renal) | TGI (CAKI-1 renal) | TGI (PC-3 prostate) | TGI (SNB-75 CNS) | TGI (OVCAR-3 ovarian) | TGI (RXF 393 renal) | TGI (SK-MEL-28 melanoma) | TGI (OVCAR-8 ovarian) | TGI (NCI-H23 lung) | TGI (SNB-19 CNS) | TGI (SK-MEL-5 melanoma) | TGI (NCI/ADR-RES ovarian) | TGI (IGROV1 ovarian) | TGI (OVCAR-4 ovarian) | TGI (DU-145 prostate) | TGI (SF-295 CNS) | TGI (SK-MEL-2 melanoma) | TGI (NCI-H522 lung) | TGI (BT-549 breast) | TGI (T-47D breast) | TGI (KM12 colon) | TGI (SR leukemia) | TGI (NCI-H226 lung) | TGI (LOX IMVI melanoma) | TGI (HOP-92 NSCLC) | TGI (786-0 renal) | TGI (MDA-MB-231 breast) | TGI (TK-10 renal) | TGI (U251 CNS) | TGI (NCI-H460 lung) | TGI (A549 NSCLC) | TGI (MALME-3M melanoma) | TGI (K-562 leukemia) | TGI (ACHN renal) | TGI (SN12C renal) | TGI (HOP-62 NSCLC) | TGI (HS 578T breast) | TGI (SW-620 colon) | TGI (EKVX NSCLC) | TGI (SF-268 CNS) | TGI (M14 melanoma)

COc1ccc(-c2cc(-c3ccccc3)c(C#N)c(=O)n2C2OC(COC(C)=O)C(OC(C)=O)C(OC(C)=O)C2OC(C)=O)cc1 (stereo not given)
> 100 µM: TGI (UO-31 renal) | TGI (RPMI-8226 leukemia)
inactive: GI50 (RPMI-8226 leukemia) 47.3 µM and 11.5 µM

CS(=O)(=O)CC(Cc1ccccc1)C(=O)O (stereo not given)
inactive: GI50 (SR leukemia) 10.6 mg/L | GI50 (TK-10 renal) 92.1 mg/L

COC(=O)c1ccccc1CC(Cc1ccccc1)C(=O)OC (stereo not given)
73.7 µM: TGI (SNB-75 CNS)
70.9 µM: TGI (RXF 393 renal)
90.7 µM: TGI (MOLT-4 leukemia)
> 100 µM: TGI (CCRF-CEM leukemia) | TGI (OVCAR-5 ovarian) | TGI (HCT-15 colon) | TGI (SK-OV-3 ovarian) | TGI (HCT-116 colon) | TGI (MCF7 breast) | TGI (MDA-MB-435) | TGI (A498 renal) | TGI (HT29 colon) | TGI (HCC-2998 colon) | TGI (UO-31 renal) | TGI (CAKI-1 renal) | TGI (PC-3 prostate) | TGI (OVCAR-3 ovarian) | TGI (SK-MEL-28 melanoma) | TGI (OVCAR-8 ovarian) | TGI (NCI-H23 lung) | TGI (SNB-19 CNS) | TGI (NCI/ADR-RES ovarian) | TGI (IGROV1 ovarian) | TGI (OVCAR-4 ovarian) | TGI (DU-145 prostate) | TGI (SF-295 CNS) | TGI (SK-MEL-2 melanoma) | TGI (NCI-H522 lung) | TGI (BT-549 breast) | TGI (KM12 colon) | TGI (SF-539 CNS) | TGI (SR leukemia) | TGI (NCI-H226 lung) | TGI (LOX IMVI melanoma) | TGI (786-0 renal) | TGI (MDA-MB-231 breast) | TGI (TK-10 renal) | TGI (U251 CNS) | TGI (NCI-H460 lung) | TGI (COLO 205 colon) | TGI (RPMI-8226 leukemia) | TGI (A549 NSCLC) | TGI (MALME-3M melanoma) | TGI (K-562 leukemia) | TGI (ACHN renal) | TGI (SN12C renal) | TGI (HOP-62 NSCLC) | TGI (HS 578T breast) | TGI (SW-620 colon) | TGI (EKVX NSCLC) | TGI (M14 melanoma) | TGI (UACC-257 melanoma)
54.8 µM: TGI (SK-MEL-5 melanoma)
55.9 µM: TGI (HL-60(TB) leukemia)
61.3 µM: TGI (SF-268 CNS)
